Test results as given in US20250231178A1, “A BIOMARKER FOR DETERMINING ALZHEIMER'S DISEASE” (UNIVERSITY OF EASTERN FINLAND, priority 2022, published 2025).

Columns and labels:
[1] = molecular target: T1, PIEZO1 receptor in red blood cells (RBCs) (Homo sapiens, UniProt Q92508); test: Yoda1-induced Ca flux in red blood cells, Fluo4 am, microtiter plate format and fluorometer; format: cell-based; conditions: n=4, mean±SEM, plate reader
T1 construct: indicating the Ca^2+ influx into the red blood cells (RBCs) through PIEZO1 ion channels; endogenous in cells; host or cells: Red blood cells from venous blood of healthy, MCI and AD donors
T1 sequence (Q92508 whole entry): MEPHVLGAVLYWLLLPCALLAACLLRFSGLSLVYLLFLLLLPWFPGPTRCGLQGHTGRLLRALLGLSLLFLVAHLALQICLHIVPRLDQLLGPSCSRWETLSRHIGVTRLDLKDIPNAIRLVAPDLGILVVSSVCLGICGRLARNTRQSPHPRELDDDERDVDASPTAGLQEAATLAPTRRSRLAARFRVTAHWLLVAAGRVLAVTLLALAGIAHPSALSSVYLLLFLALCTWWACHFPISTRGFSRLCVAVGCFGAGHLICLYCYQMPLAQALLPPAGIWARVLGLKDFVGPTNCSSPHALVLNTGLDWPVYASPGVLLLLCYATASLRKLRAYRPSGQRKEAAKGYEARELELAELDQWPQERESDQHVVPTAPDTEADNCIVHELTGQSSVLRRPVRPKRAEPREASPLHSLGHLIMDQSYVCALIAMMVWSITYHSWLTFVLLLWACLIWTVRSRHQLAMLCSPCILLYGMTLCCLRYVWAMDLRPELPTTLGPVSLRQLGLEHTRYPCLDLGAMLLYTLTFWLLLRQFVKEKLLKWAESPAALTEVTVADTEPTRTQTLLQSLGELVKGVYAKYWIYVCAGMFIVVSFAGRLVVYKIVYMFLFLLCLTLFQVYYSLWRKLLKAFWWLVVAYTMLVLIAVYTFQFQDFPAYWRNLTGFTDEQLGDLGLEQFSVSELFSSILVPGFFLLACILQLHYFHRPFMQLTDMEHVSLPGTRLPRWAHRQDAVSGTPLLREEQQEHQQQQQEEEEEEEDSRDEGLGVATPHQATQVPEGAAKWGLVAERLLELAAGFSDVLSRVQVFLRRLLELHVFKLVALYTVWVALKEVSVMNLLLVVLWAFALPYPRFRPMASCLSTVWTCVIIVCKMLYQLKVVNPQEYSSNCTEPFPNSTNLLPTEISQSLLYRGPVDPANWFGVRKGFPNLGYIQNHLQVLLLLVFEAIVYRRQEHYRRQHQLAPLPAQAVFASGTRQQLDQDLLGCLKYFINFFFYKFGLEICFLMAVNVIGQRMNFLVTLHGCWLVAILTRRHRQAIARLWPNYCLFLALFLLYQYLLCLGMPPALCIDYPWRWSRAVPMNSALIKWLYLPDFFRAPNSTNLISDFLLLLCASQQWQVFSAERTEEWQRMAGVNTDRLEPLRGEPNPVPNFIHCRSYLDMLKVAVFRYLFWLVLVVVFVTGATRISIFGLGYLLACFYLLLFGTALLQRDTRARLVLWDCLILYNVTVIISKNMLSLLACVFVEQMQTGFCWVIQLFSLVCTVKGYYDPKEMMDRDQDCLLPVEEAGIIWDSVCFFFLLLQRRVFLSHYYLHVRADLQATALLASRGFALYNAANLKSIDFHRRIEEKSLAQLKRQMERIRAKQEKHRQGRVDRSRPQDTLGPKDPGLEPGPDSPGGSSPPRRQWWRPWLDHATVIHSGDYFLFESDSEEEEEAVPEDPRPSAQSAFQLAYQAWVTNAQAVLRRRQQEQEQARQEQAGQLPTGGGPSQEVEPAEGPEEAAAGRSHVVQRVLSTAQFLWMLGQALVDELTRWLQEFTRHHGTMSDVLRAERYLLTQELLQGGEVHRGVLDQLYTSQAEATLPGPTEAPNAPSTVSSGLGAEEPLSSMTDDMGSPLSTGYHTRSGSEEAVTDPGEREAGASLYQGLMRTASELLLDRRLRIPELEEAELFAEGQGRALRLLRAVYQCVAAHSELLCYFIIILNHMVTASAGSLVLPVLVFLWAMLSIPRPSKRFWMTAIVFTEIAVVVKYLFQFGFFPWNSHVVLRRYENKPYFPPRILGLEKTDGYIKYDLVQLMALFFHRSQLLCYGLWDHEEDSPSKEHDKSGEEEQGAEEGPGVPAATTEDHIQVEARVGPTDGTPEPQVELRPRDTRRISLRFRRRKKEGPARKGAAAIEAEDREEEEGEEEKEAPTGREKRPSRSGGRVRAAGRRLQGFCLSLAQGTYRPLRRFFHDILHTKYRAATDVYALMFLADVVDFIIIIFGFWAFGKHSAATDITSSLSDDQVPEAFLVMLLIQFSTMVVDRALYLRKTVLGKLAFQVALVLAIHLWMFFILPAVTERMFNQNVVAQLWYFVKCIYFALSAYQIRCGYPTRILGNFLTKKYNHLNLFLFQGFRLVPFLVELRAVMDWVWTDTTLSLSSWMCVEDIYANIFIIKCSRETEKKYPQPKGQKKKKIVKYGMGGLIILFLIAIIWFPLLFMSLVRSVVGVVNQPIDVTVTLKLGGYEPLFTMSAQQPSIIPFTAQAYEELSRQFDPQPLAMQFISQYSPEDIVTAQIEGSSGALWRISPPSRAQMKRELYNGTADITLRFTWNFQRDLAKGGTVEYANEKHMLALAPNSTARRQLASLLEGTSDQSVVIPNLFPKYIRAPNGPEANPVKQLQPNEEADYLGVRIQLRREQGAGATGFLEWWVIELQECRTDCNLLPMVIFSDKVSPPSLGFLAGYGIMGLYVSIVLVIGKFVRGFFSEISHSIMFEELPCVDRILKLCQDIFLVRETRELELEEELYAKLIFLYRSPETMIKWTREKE
Method: Mann-Whitney test, two-tailed, *p<0.05. […] Signals recorded without addition of Fluo4, with and without Yoda1, were subtracted from their Fluo4 loaded counterparts to give the final read-outs used in normalising the results.
300 μL of blood from the healthy persons and AD patients was collected into the blood sampling tubes with sodium citrate to prevent coagulation. The samples were washed twice with PBS buffer (Ca^2+ and Mg^2+ free) by centrifugation at 300 G for 5 minutes. […] of the red blood cell (RBC) pellet was divided into […], 50 μL for fluorescent staining and 50 μL for the negative control. […] The samples were distributed into the microtitration plate (96-wells, 180 μL per well), after which the ground level of fluorescence (485 nm/535 nm, 1.0 s, Victor Wallac) was measured immediately. 20 μL of DMSO (for vehicle control) or 20 μL of 5 μM Yoda1 (for PIEZO1 activity) was added into the wells, and the fluorescence was measured immediately. The fluorescence signal of the sample having no Fluo4 am was subtracted from the fluorescence signals of the vehicle and Yoda1 samples treated with Fluo4 am. The increase in fluorescence upon addition of Yoda1 was normalized to the signal measured before addition of Yoda1. The normalized increase fluorescence was 2.62±0.42 for healthy and 5.64±0.23 for AD (mean #SEM) (FIG. 3G). […]

[2] = molecular target: T1, PIEZO1 receptor in red blood cells (RBCs); test: Yoda1-induced Ca flux in red blood cells, Fluo4 am, flow cytometry (FACS) time-lapse; format: cell-based; conditions: for normalized MFI levels (Fluo4 am median fluorescence intensity normalized on baseline): 10 μM Yoda1, 60 s of recording
Method: The venous blood samples from healthy subjects, patients with mild cognitive impairment (MCI), and patients with Alzheimer's disease (AD) were collected into BD Vacutainer® blood collection tubes containing the K3-EDTA anti-coagulant. 150 μl of whole blood was taken for further processing, washed two times with 10 ml of phosphate-buffered saline (PBS) (5 mins, 300 g, RT (=about 20-25° C.) to remove plasma. After the second wash, the supernatant was removed and 50 μl of red blood cells (RBCs) were transferred to clean falcon tube and resuspended in 200 μl PBS (250 μl total volume of cell suspension). 250 μl of Fluo4 am AM (Thermo Fisher Scientific) fluorescent dye was added and cells were incubated for 30 minutes at 37° C. in dark.
After the incubation, cell suspension was washed twice with 5 ml of PBS, followed by one wash with HBSS (5 mins, 300 g, RT). Supernatant was carefully removed with pipette and 50 μl pellet was resuspended in 450 μl of Hank's Balanced Salt Solution (HBSS) to form 10% cell suspension. 10 μl of 10% cell suspension was transferred to 390 μl of RPMI/FBS (10:1) (400 μl final volume). This cell suspension was further used for flow cytometry time-lapse assessment using CytoFLEX S flow cytometer (Beckman Coulter, USA).
At the start of the recording, at t=0 seconds, baseline fluorescence was recorded for 20 seconds. At t=20 seconds, Yoda1 in DMSO was applied to the sample at the final concentration of 5 or 10 μM. At t=4 minutes and 20 seconds, ionomycin, serving as the positive control, was applied at the final concentration 10 μM. Recording was finished at t=5 minutes 30 seconds.
FIGS. 3A-3C plot the mean values of Ca^2+ signal for each group with 10 μM Yoda1 spanning from BL (t=0 seconds) to t=4 minutes, while the FIGS. 3D-3F show the measurements of individual samples at t=60 seconds.
All flow cytometric data were analyzed using CytExpert Software v 2.4 (Beckman Coulter Inc., CA, USA). Yoda1-induced Ca flux was measured by using Fluo4 am median fluorescence intensity (MFI) of single cells after Yoda1 application at different time points—baseline (before application of Yoda1 at 10 μM concentrations), and every 20 sec of the recording.
Data were analyzed using GraphPad Prism Software (CA, USA). Statistical analysis was performed using Mann-Whitney test, two-tailed. The data are presented as mean±SEM.

## Clc1cccc(Cl)c1CSc1nnc(-c2cnccn2)s1 [Yoda1, 2-[(2,6-Dichlorophenyl)methylsulfanyl]-5-pyrazin-2-yl-1,3,4-thiadiazole]
[1]; 5 μM Yoda1, RBCs of AD patients
  normalized increase fluorescence (signal after Yoda1 normalized to signal before addition): 5.64±0.23
[1]; 5 μM Yoda1, RBCs of healthy persons
  normalized increase fluorescence (signal after Yoda1 normalized to signal before addition): 2.62±0.42
[2]; RBCs of AD patients, n=21, mean±SEM
  normalized MFI levels (Fluo4 am median fluorescence intensity normalized on baseline): 8.57±0.6
[2]; RBCs of MCI patients, n=26, mean±SEM
  normalized MFI levels (Fluo4 am median fluorescence intensity normalized on baseline): 7.9±0.48
[2]; RBCs of control (healthy) subjects, n=23, mean±SEM
  normalized MFI levels (Fluo4 am median fluorescence intensity normalized on baseline): 5.64±0.27
[2]; 10 μM Yoda1 applied at 20 s of recording, levels remained similar till end of 4 min recording
  time at which maximum Fluo4 am MFI levels were reached: ≤ 60 s
